Source: patent US6514979B1, “Synergistic combinations of guanosine analog reverse transcriptase inhibitors and inosine monophosphate dehydrogenese inhibitors and uses therefor” (University of Maryland Biotechnology Institute, priority 1999, dated 2003)
pIC50, pKi: −log10 of the molar value. Counter-ions that a name gives are not always drawn. Like-named read-outs stand apart in the source and are kept apart here.

Key:
HIV-1 [1] = assay: combined effects of MA and available nucleoside analogs (Table 2); type: cell-based
From the text: Although MA directly depletes cellular guanosine pools through inhibition of IMPDH, this may result secondarily in perturbations of other cellular enzyme activities. Such perturbations could result in beneficial or detrimental therapeutic effects. The combined effects of MA and available nucleoside analogs are described in Table 2: […]

HIV-1 IIIb = assay: p24 production by HIV-1 IIIb infected PHA-stimulated PBMCs, Greco interaction model; type: cell-based; settings: HIV IIIb in PBMCs; for pIC50: p24 day 7, Greco model estimate
Procedure: (§1) Primary PBMCs were separated from whole blood of HIV seronegative donors by density centrifugation over Ficoll-Hypaque (Sigma). The culture medium consisted of RPMI supplemented with 10% fetal bovine serum (FBS), 2 mM glutamine and penicillin/streptomycin (Gibco, Grand Island, N.Y.). For infection studies involving PBMCs, cells were stimulated with 10 μg/mL phytohemagglutinin (PHA; Boehringer Mannheim, Indianapolis, Ind.) and cultured for 3 days. Stimulated PBMCs were infected by incubation with virus at a multiplicity of infection of 1000 TCID50/d10^6 PBMC for 2 hours. PBMC were then washed three times with PBS and cultured in 5% CO2 at 37° C, in RPMI/10% FBS supplemented with 10 units/mL IL-2 (Boehringer Mannheim) and drugs as appropriate. PBMC were seeded in 96-well flat-bottom plates at a density of 2×10^5 PBMC/200 μL. Following three days of culture, half of the medium was replaced with fresh medium containing IL-2 and drugs. After 7 days of culture HIV-1 p24 production in the culture supernatant was assayed by ELISA (Coulter, Hialeah, Fla.).
Additive antiviral effect was analyzed according to the definition of Loewe, using the interaction model of Greco et al. as was described above. This model is fully parametric, and point estimates of the model parameters are obtained in a traditional weighted, nonlinear least-squares approach. The model follows the equation below: [formula]
where α (alpha) is the synergism-antagonism interaction parameter, IC50.1 and IC50.2 are the drug concentrations resulting in 50% inhibition for drug 1 and drug 2, respectively; D1 and D2 are the concentration of drugs tested; Econ is the control effect in the absence of either drug, E is the observed effect , and m 1 and m 2 are the slope parameters for each drug. If the estimate of α is zero, the drug combination is additive; if α is positive, the interaction is synergistic; if α is negative, the interaction is antagonistic. […] That is, if the 95% confidence interval encompasses zero, the interaction is additive. […] This model was implemented using the ADAPT II programs (D'Argenio D. Z, Schumitzky A. ADAPT II: a program package for simulation identification and optimal experimental design. 1990. Biomedical Simulations Resource, Univ. Of Southern California, Los Angeles). Each drug combination was tested in triplicate so as to obtain an estimate of the variance of the effect at different drug concentration combinations.
The combined effect of abacavir and MA was examined in PBMC culture systems. PBMCs from a seronegative donor were stimulated with PHA and infected with the T-cell tropic isolate HIV-1 IIIb. At the clinically utilized dose (600 mg/day) of abacavir steady state peak serum levels are […] (4.47 μM; e.g.,see Ziagen package insert. Glaxo Wellcome, Inc., Research Triangle Park, N.C.). After a single 1000 mg dose of MA in a healthy individual, the mean peak serum level is 56.5 μM. Therefore, infected cells were cultured in the presence of abacavir from 0 to 4 μM, and in the presence of 0 to 1 μM of MA. On day 7 after infection the number of viable cells was determined by MTT assay (Boehringer Mannheim), and p24 antigen in the culture supernatant was measured.
The interaction of abacavir and MA in the suppression of HIV IIIb replication in PBMCs was analyzed using the Greco model as described above. Each data point was determined in triplicate. Each observation was weighted by the inverse of the observation variance. These parameters and their 95% confidence bounds are shown below: […]

Wild-type HIV = assay: replication of wild-type HIV-1 in PBMCs, day 7 p24; type: cell-based; settings: Human immunodeficiency virus 1, PBMC; 4 μM abacavir
Procedure: as §1

[2] = system: resistant HIV encoding M184V; assay: replication of M184V mutant HIV-1 in PBMCs, day 7 p24; type: cell-based; settings: Human immunodeficiency virus 1, PBMC, read-out: inhibition of resistant HIV encoding M184V
Procedure: as §1

HIV-1 [3] = settings: monotherapy; cited from earlier work
[4] = target: inosine monophosphate dehydrogenase (IMPDH); settings: literature values; read-out: Ki for IMPDH inhibition; cited from earlier work
Type II isoform of IMPDH = Type II isoform of IMPDH (Homo sapiens, UniProt P12268); settings: stimulated lymphocytes isoform; cited from earlier work
[5] = system: HIV reverse transcriptase M184V; settings: cited from earlier work
cellular guanosine pools = assay: addition of deoxynucleosides to the culture media; type: cell-based; settings: not shown
From the text: MA may synergize with abacavir via depletion of cellular guanosine pools, effectively increasing the intracellular concentration of abacavir. However, MA may also act via a general inhibitory effect on T lymphocyte proliferation, as has been hypothesized in the case of hydroxyurea (Lori F., Malykh A. G., Foli A., Maserati R., De Antoni A., Minoli L., Padrini D., Degli Antoni A., Barchi E., Jessen H., Wainberg M. A., Gallo R. C., Lisziewicz J. Combination of a drug targeting the cell with a drug targeting the virus controls human immunodeficiency virus type 1 resistance. AIDS Res Hum Retroviruses 1997; 13(16): 1403-9; De Boer R. J., Boucher C. A., Perelson A. S. Target cell availability and the successful suppression of HIV by hydroxyurea and didanosine. AIDS 1998; 12(13): 1567-70).

HIV-1 [6] = settings: 1-10 μM; cited from earlier work
neutrophil function = settings: concentrations of up to 10 μM; cited from earlier work
IL-2 receptor signaling = settings: high concentrations; cited from earlier work
[7] = single 1000 mg dose in a healthy individual; cited from earlier work
PBMC = assay: MTT cell proliferation assay of PBMC cultures; settings: 0.5 μM MA
Procedure: Cellular proliferation in culture in the presence or absence of MA and abacavir was measured using a commercial MMT cell proliferation assay, as per the manufacturer's instructions (Boehringer Mannheim).

For `OC[C@@H]1CC[C@H](n2cnc3c(O)ncnc32)O1` [didanosine, 2′,3′-dideoxyinosine], the “antiviral effect of nucleoside analog alone” value (HIV-1 [1]; concentration not given) was 11.
For `Cc1cn([C@H]2C[C@H](N=[N+]=[N-])[C@@H](CO)O2)c(=O)[nH]c1=O` [zidovudine, 3′-azido-3′-deoxythymidine], the “antiviral effect of nucleoside analog alone” value (HIV-1 [1]; concentration not given) was 84.
In the case of `Nc1nc(NC2CC2)c2ncn([C@H]3C=C[C@@H](CO)C3)c2n1` [abacavir, (1S,cis)-4-[2-amino-6-(cyclopropylamino)-9H-purin-9-yl]-2-cyclopentene-1-methanol sulfate], the “m abacavir (slope parameter)” value (HIV-1 IIIb; Greco model estimate) was 0.70, the pIC50 (HIV-1 IIIb; read-out: IC50 abacavir) was 6.20 and the pIC50 (HIV-1 IIIb; Human immunodeficiency virus 1, IIIB, PBMC, 168 h, read-out: IC50 abacavir) was 6.20. For the same compound, the inhibition at 4 µM (Wild-type HIV) was 98%, the inhibition at 4 µM [2] was 53% and the “antiviral effect of nucleoside analog alone” value (HIV-1 [1]; 2 μM) was 2.7. For the same compound, the “drop in plasma HIV-1 RNA” value (HIV-1 [3]) was 1.55 log.
In the case of `Cc1cn([C@H]2C=C[C@@H](CO)O2)c(=O)[nH]c1=O` [stavudine, 2′,3′-dihydro-3′-deoxythymidine], the “antiviral effect of nucleoside analog alone” value (HIV-1 [1]; 2 μM) was 115.
For `COc1c(C)c2c(c(O)c1C/C=C(\C)CCC(=O)O)C(=O)OC2` [Mycophenolic acid], the pKi [4] is given as 8.00 to 8.70 and the “sensitivity of Type II isoform versus the isoform predominant in other cell lineages” value (Type II isoform of IMPDH) is given as “four times more sensitive”.
For `Nc1ccn([C@@H]2CS[C@H](CO)O2)c(=O)n1` (relative stereo) [3TC, (2R,cis)4-amino-1-(2-hydroxymethyl-1,3-oxathiolan-5-yl)-(1H)-pyrimidin-2-one], the “resistance conferred by M184V” value [5] is given as “high level resistance”.
For `COc1c(C)c2c(c(O)c1C/C=C(\C)CCC(=O)OCCN1CCOCC1)C(=O)OC2` [MA, 2-morpholinoethyl ester of mycophenolic acid], the “m MA (slope parameter)” value (HIV-1 IIIb; Greco model estimate) was 1.90, the pIC50 (HIV-1 IIIb; read-out: IC50 MA) was 6.96 and the pIC50 (HIV-1 IIIb; Human immunodeficiency virus 1, IIIB, PBMC, 168 h, read-out: IC50 MA) was 7.00. For the same compound, the “antiviral effect of MA alone” value (HIV-1 [1]; 0.125 μM MA) was 1.3, the “antiviral effect of MA alone” value (HIV-1 [1]; 0.5 μM MA) was 9.3 and the “inhibitory effect of MA after addition of deoxyadenosine” value (cellular guanosine pools) was “no effect”. For the same compound, the “inhibitory effect of MA after addition of deoxyguanosine” value (cellular guanosine pools) was “ablated the inhibitory effect”, the “effect on replication of HIV-1 in vitro” value (HIV-1 [6]) was “inhibit ed the replication” and the “effect on neutrophil function” value (neutrophil function) was “do not inhibit neutrophil function”. The “effect on IL-2 receptor signaling” value (IL-2 receptor signaling) was “do not disrupt IL-2 receptor signaling”, the “mean peak serum level” value [7] was 56.5 µM and the antiproliferative effect (PBMC) was “modest antiproliferative effect”.
In the case of `Nc1ccn([C@H]2CC[C@@H](CO)O2)c(=O)n1` [zalcitibine, 2′,3′-dideoxycytidine], the “antiviral effect of nucleoside analog alone” value (HIV-1 [1]; concentration not given) was 3.9.
